From ChEMBL document CHEMBL3102851, “Trinorditerpenes from the roots of Flueggea virosa” (Bioorg Med Chem Lett, 2014)

Columns and labels:
[1] = Cytotoxicity against human Huh7.5 cells; assay type: cell-based; settings: Huh-7
[2] = Antiinflammatory activity in human neutrophils assessed as FMLP/cytochalasin B-induced superoxide anion generation after 5 mins by spectrophotometry; assay type: functional, cell-based; settings: Neutrophil
[3] = Antiinflammatory activity in human neutrophils assessed as FMLP/cytochalasin B-induced elastase release after 5 mins by spectrophotometry; assay type: functional, cell-based; settings: Neutrophil
Hepatitis C virus = assay: Antiviral activity against HCV infected in human Huh7.5 cells; assay type: functional, organism-based, Hepacivirus hominis; settings: Huh-7

| SMILES | IC50 [1] | IC50 [2] | IC50 [3] | EC50 (Hepatitis C virus) |
| --- | --- | --- | --- | --- |
| Cc1cc2ccc3c(c2cc1O)CCC(=O)C3(C)C | 26.9 µM | 4.4 µM | 4.3 µM | 13 µM |
| COc1cc2c3c(ccc2cc1C)C(C)(C)C(O)CC3 (racemic) | 64.8 µM | > 30 µM | 9.6 µM | 23.6 µM |
| C=CCc1ccc(O)c(-c2ccc(O)c(CC=C)c2)c1 [HONOKIOL] | 58.5 µM |  |  | 9.4 µM |
| CNC(=O)c1cc(Oc2ccc(NC(=O)Nc3ccc(Cl)c(C(F)(F)F)c3)cc2)ccn1 [SORAFENIB] |  | 3.2 µM | 2 µM |  |
